Reference: ChEMBL document CHEMBL5291721, “A preclinical secondary pharmacology resource illuminates target-adverse drug reaction associations of marketed drugs” (Nat Commun, 2023)

Key:
[1] = molecular target: T1, Alpha-1A adrenergic receptor (Homo sapiens, UniProt P35348); type: functional, cell-based
T1 sequence (P35348 whole entry): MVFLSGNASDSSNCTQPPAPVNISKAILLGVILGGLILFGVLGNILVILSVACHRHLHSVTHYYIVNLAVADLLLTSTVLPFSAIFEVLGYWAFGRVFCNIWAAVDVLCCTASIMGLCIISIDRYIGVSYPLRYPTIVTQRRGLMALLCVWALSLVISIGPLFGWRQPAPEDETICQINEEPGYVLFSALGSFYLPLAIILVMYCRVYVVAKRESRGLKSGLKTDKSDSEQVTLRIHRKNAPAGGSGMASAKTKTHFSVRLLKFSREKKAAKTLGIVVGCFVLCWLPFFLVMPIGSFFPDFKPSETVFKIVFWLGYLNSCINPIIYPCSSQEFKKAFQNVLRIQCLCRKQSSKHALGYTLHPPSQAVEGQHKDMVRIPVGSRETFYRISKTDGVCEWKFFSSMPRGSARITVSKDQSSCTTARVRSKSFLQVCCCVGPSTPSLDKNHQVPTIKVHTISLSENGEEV

[2] = molecular target: T2, 5-hydroxytryptamine receptor 1A (Homo sapiens, UniProt P08908)
T2 sequence (P08908 whole entry): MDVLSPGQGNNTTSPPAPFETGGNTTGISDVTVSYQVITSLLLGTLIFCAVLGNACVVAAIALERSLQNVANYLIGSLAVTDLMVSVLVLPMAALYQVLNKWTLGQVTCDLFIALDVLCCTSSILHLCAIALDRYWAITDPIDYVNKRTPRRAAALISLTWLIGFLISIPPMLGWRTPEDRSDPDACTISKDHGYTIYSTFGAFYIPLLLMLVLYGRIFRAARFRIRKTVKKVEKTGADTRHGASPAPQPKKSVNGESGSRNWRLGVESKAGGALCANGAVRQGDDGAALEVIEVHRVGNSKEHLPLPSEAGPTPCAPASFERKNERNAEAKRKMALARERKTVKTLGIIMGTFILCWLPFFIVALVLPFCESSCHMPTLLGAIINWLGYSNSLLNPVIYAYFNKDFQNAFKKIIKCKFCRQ

[3] = molecular target: T3, Amine oxidase [flavin-containing] A (Homo sapiens, UniProt P21397); type: functional
T3 sequence (P21397 whole entry): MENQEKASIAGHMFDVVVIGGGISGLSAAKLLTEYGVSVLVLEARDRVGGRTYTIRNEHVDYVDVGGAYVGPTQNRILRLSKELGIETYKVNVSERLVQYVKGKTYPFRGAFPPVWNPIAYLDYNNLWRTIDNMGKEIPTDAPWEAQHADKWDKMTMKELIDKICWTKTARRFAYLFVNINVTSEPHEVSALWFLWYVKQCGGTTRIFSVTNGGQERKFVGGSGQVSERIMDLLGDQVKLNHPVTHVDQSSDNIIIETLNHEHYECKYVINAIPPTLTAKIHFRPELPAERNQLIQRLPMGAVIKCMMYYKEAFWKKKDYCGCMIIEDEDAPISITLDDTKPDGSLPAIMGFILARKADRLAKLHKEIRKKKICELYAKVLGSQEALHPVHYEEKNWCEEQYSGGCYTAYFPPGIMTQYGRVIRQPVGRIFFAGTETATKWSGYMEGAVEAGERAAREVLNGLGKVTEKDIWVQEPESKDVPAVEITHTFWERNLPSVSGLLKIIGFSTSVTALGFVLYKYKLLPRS

[4] = molecular target: cGMP-inhibited 3',5'-cyclic phosphodiesterase 3A (Homo sapiens, UniProt Q14432); type: functional
Progesterone receptor = molecular target: T4, Progesterone receptor (Homo sapiens, UniProt P06401)
T4 sequence (P06401 whole entry): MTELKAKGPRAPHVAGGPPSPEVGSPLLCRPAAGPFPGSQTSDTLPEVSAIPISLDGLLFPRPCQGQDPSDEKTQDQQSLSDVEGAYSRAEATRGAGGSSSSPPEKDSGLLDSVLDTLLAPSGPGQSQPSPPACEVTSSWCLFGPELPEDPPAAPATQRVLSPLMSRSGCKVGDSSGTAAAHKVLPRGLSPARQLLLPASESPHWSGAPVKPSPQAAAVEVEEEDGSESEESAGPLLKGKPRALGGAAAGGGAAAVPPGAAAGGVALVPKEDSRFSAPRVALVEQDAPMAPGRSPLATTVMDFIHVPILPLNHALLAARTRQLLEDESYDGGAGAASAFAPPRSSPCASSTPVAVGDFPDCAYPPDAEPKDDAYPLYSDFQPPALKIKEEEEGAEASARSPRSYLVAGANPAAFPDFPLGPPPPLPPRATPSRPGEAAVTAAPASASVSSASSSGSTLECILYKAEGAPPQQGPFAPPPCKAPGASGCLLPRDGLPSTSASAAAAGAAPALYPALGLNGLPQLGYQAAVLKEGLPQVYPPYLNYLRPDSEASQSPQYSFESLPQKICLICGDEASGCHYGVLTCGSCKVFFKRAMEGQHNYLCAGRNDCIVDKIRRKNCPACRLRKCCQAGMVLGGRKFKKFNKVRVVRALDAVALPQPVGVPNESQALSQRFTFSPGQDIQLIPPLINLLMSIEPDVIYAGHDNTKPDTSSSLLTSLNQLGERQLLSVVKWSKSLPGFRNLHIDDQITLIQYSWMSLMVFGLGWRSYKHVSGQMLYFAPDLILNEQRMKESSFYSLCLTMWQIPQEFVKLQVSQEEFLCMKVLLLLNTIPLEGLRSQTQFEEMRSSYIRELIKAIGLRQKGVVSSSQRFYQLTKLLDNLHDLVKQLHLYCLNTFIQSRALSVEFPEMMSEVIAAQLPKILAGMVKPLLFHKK

[5] = molecular target: Prostaglandin G/H synthase 1 (Homo sapiens, UniProt P23219); type: functional
[6] = molecular target: Sodium-dependent noradrenaline transporter (Homo sapiens, UniProt P23975)
[7] = molecular target: Sodium-dependent serotonin transporter (Homo sapiens, UniProt P31645)
Thromboxane A2 receptor = molecular target: T5, Thromboxane A2 receptor (Homo sapiens, UniProt P21731); type: functional, cell-based
T5 sequence (P21731 whole entry): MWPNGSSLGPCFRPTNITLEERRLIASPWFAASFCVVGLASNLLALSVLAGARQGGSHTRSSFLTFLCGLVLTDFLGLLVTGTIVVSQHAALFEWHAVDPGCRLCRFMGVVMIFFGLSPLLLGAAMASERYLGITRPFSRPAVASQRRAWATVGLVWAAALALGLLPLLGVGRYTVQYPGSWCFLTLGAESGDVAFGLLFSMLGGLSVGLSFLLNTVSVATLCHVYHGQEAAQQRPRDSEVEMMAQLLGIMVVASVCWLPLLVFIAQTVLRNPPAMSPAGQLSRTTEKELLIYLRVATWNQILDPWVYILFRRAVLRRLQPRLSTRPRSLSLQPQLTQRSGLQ

Measured: AC50
Note: assay procedure not described here.

Prostaglandin G/H synthase 1, sequence (P23219 whole entry): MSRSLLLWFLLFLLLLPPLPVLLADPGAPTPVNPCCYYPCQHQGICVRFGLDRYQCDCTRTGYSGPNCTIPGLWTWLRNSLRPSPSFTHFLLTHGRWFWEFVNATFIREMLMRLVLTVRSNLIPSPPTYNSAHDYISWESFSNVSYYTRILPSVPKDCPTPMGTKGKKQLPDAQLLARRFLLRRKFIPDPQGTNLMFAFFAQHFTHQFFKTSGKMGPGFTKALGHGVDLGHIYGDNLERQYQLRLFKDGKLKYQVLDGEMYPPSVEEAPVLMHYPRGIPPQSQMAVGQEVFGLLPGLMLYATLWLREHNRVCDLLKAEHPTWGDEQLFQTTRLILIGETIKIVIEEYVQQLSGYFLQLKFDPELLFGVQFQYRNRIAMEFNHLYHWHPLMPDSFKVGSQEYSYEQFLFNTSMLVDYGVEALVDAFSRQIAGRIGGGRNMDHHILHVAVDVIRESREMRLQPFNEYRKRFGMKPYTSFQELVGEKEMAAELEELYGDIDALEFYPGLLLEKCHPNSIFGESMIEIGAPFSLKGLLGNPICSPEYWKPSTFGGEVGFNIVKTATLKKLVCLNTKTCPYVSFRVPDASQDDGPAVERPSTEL
Sodium-dependent serotonin transporter, sequence (P31645 whole entry): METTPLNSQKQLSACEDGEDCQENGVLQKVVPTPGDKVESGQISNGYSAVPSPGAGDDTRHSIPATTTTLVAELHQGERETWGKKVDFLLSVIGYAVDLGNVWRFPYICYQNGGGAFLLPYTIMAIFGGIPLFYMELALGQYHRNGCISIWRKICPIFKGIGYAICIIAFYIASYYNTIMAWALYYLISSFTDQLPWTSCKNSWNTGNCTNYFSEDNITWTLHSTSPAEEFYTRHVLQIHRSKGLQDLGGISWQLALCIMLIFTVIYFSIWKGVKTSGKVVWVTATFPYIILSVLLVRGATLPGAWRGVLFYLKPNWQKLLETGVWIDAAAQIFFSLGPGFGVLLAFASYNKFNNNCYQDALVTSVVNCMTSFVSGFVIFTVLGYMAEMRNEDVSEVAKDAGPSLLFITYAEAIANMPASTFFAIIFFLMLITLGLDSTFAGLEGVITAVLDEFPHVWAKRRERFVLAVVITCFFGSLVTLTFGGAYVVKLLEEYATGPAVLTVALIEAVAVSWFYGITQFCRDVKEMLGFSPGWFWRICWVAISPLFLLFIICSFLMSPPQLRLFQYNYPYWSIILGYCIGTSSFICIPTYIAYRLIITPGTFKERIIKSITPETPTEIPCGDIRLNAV
Sodium-dependent noradrenaline transporter, sequence (P23975 whole entry): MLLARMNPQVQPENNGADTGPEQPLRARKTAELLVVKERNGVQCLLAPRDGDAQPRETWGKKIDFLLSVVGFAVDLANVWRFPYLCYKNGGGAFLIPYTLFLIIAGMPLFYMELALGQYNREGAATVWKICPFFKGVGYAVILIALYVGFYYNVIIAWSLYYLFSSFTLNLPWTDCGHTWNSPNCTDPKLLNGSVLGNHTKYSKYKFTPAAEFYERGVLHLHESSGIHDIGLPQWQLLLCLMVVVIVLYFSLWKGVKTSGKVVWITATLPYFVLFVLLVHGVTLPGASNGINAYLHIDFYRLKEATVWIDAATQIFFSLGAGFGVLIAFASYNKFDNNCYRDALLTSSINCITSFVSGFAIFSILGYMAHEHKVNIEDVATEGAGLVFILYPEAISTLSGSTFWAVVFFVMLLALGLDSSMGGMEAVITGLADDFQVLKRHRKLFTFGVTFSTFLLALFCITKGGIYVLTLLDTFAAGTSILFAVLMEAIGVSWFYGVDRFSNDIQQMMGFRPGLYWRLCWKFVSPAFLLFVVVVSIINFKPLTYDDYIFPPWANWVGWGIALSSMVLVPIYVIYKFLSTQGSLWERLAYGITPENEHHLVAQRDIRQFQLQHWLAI
cGMP-inhibited 3',5'-cyclic phosphodiesterase 3A, sequence (Q14432 whole entry): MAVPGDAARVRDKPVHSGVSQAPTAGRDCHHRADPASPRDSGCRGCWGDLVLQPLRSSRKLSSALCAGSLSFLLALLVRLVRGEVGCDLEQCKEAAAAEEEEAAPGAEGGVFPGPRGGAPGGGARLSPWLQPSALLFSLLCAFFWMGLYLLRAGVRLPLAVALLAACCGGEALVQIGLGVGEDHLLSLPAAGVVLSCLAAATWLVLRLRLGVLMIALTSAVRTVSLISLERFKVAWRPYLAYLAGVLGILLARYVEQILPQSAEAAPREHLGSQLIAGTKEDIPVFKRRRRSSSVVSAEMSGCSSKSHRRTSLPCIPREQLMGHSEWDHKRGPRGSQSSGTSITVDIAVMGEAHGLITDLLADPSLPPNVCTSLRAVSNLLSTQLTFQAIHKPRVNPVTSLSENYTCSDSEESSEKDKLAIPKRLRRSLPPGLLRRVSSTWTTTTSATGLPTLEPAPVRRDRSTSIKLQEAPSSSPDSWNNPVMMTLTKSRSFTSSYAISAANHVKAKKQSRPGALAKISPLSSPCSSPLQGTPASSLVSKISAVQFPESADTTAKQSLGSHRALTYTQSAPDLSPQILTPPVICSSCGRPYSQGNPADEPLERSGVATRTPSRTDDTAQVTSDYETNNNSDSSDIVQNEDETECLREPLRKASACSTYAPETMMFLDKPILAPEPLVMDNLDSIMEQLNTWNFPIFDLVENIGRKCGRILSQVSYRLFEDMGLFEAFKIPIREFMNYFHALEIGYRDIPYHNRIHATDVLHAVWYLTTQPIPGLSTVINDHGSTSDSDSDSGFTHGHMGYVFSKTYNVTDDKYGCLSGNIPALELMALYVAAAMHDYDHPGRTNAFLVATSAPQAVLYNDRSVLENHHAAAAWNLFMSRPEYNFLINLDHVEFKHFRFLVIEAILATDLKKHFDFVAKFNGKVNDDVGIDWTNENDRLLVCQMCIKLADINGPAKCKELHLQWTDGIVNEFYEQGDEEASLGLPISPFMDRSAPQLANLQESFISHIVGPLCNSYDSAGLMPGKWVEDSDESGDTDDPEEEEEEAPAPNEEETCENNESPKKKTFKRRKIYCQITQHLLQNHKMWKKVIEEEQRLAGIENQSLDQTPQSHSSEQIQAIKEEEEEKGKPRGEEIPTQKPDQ

CCOC(=O)C(c1c(O)c2ccccc2oc1=O)c1c(O)c2ccccc2oc1=O [ETHYL BISCOUMACETATE]
> 30 µM: all assays above

Cc1nc(-c2ccc(OCC(C)C)c(C#N)c2)sc1C(=O)O [FEBUXOSTAT]
16.1 µM: Progesterone receptor
> 30 µM: all other assays above

O=C1NCC2(CCN(CCc3ccccc3)CC2)O1 [FENSPIRIDE]
> 30 µM: all assays above

C[C@@H]1C[C@H]2[C@@H]3C[C@H](F)C4=CC(=O)C=C[C@]4(C)[C@@]3(F)[C@@H](O)C[C@]2(C)[C@@]1(O)C(=O)COC(=O)C(C)(C)C [FLUMETHASONE PIVALATE]
5.85 µM: Progesterone receptor
> 30 µM: all other assays above

C[C@@H]1C[C@H]2[C@@H]3C[C@H](F)C4=CC(=O)C(Cl)=C[C@]4(C)[C@@]3(F)[C@@H](O)C[C@]2(C)[C@@]1(O)C(=O)CO [HALOMETASONE]
7.72 µM: Progesterone receptor
> 30 µM: all other assays above

CC(C)Cc1ccc(C(C)C(=O)NO)cc1 (configuration not stated) [IBUPROXAM]
> 30 µM: all assays above

CC/C=C\C/C=C\C/C=C\C/C=C\C/C=C\CCCC(=O)O [ICOSAPENT]
> 10 µM: [5]
> 30 µM: all other assays above

CS(=O)(=O)Nc1cc2occ(NC=O)c(=O)c2cc1Oc1ccccc1 [IGURATIMOD]
4.51 µM: [5]
> 30 µM: all other assays above

CCC(Cc1c(I)cc(I)c(N)c1I)C(=O)O (configuration not stated) [IOPANOIC ACID]
> 30 µM: all assays above

O=C(NC1CCN(CCCCC2(C(=O)NCC(F)(F)F)c3ccccc3-c3ccccc32)CC1)c1ccccc1-c1ccc(C(F)(F)F)cc1 [LOMITAPIDE]
23.2 µM: [5]
2.2 µM: [6]
8.46 µM: Thromboxane A2 receptor
> 30 µM: all other assays above

CCN(CC)CCNc1ccc(C)c2sc3ccccc3c(=O)c12 [LUCANTHONE]
0.523 µM: [2]
17.9 µM: [1]
2.68 µM: [6]
6.25 µM: [7]
16.3 µM: [3]
> 30 µM: all other assays above

CCOC(=O)CC(SP(=S)(OC)OC)C(=O)OCC (configuration not stated) [MALATHION]
> 30 µM: all assays above

CCC1(c2cccc(O)c2)CCCCN(C)C1 (configuration not stated) [MEPTAZINOL]
13.5 µM: [7]
> 30 µM: all other assays above

CC(=O)OC(C)C[N+](C)(C)C (configuration not stated) [METHACHOLINE]
0.824 µM: Thromboxane A2 receptor
> 30 µM: all other assays above

C1N2CN3CN1CN(C2)C3 [METHENAMINE]
> 30 µM: all assays above

O=[N+]([O-])c1cncn1CCN1CCOCC1 [NIMORAZOLE]
> 30 µM: all assays above

NC(=O)c1cccc2cn(-c3ccc([C@@H]4CCCNC4)cc3)nc12 [NIRAPARIB]
1.17 µM: [7]
1 µM: [6]
> 30 µM: all other assays above

COc1ccc2c(c1)OC(C)(C)C(c1ccccc1)C2c1ccc(OCCN2CCCC2)cc1 (configuration not stated) [ORMELOXIFENE]
13.2 µM: [7]
3.57 µM: Progesterone receptor
4.9 µM: [6]
9.91 µM: [2]
3.31 µM: [5]
13.4 µM: [1]
> 30 µM: all other assays above
